# Measurements reported in patent publication US6902744B1, “Exendin agonist formulations and methods of administration thereof” (Amylin Pharmaceuticals, Inc., priority 1999, dated 2005).
# Tested on: Sprague-Dawley rats
# Experiment: Insulinotropic action during an intravenous glucose challenge in rats
# Format: in vivo
# Details: peptide 30 pmol/kg/min i.v.; n.s. versus saline
substance,measurement,value
GLP-1[7-36]NH2,increase of 60-min insulin AUC versus saline-treated rats,20%
